Measured values reported in US7138361B2, “Herbicidal heterocycles” (E. I. du Pont de Nemours and Company, priority 2000, dated 2006).

Legend:
Format in all cases: in vivo
[1] = system: duck salad (Heteranthera limosa); assay: Test C flooded paddy test; settings: for Ducksalad plant response rating: Flooded Paddy, scale 0 to 100, 0 no effect, 100 complete control; for Plant response rating, Ducksalad / Plant response rating (scale 0 to 100), Ducksalad: flooded paddy test; for Plant response rating, Ducksalad: scale 0 to 100 (0 no effect, 100 complete control)
Summary of the method: (§1)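 Visual injury score, 0 (no effect) to 100 (complete control), relative to controls. Paddy plants treated at 2-leaf stage; greenhouse hold 12–14 d before rating.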

[2] = system: smallflower flatsedge (Cyperus difformis); assay: Test C flooded paddy test; settings: for Flatsedge plant response rating: Flooded Paddy, scale 0 to 100, 0 no effect, 100 complete control; for Plant response rating, Flatsedge / Plant response rating (scale 0 to 100), Flatsedge: flooded paddy test; for Plant response rating, Flatsedge: scale 0 to 100 (0 no effect, 100 complete control)
Summary of the method: as §1

Sunflower = assay: Test C preemergence; settings: scale 0 to 100
[3] = system: bermudagrass (Cynodon dactylon); assay: Test C postemergence
Text: (§2) Seeds of plant species selected from bermudagrass (Cynodon dactylon), Surinam grass (Brachiaria decumbens), cocklebur (Xanthium strumarium), corn (Zea mays), crabgrass (Digitaria sanguinalis), woolly cupgrass (Eriochloa villosa), giant foxtail (Setaria faberii), goosegrass (Eleusine indica), johnsongrass (Sorghum halepense), kochia (Kochia scoparia), lambsquarters (Chenopodium album), morningglory (Ipomoea hederacea), yellow nutsedge (Cyperus esculentus), pigweed (Amaranthus retroflexus), common ragweed (Ambrosia elatior), soybean (Glycine max) and velvetleaf (Abutilon theophrasti) were planted and treated preemergence with test chemicals formulated in a non-phytotoxic solvent mixture which included a surfactant.
(§3) At the same time, plants selected from these crop and weed species and also winter barley (Hordeum vulgare), blackgrass (Alopecurus myosuroides), canary grass (Phalaris minor), chickweed (Stellaria media), downy brome (Bromus tectorum), green foxtail (Setaria viridis), Italian ryegrass (Lolium multiflorum), wheat (Triticum aestivum), wild oat (Avena fatua) and windgrass (Apera spica-venti) were treated with postemergence applications of some of the test chemicals formulated in the same manner. Plants ranged in height from 2 to 18 cm (1- to 4-leaf stage) for postemergence treatments. Plant species in the flooded paddy test consisted of rice (Oryza saliva), smallflower flatsedge (Cyperus difformis), duck salad (Heteranthera limosa) and barnyardgrass (Echinochloa crus-galli) grown to the 2-leaf stage for testing. Treated plants and controls were maintained in a greenhouse for 12 to 14 days, after which time all species were compared to controls and visually evaluated. Plant response ratings, summarized in Table C, are based on a scale of 0 to 100 where 0 is no effect and 100 is complete control. A dash (-) response means no test result.

[4] = system: lambsquarters (Chenopodium album); assay: Test C postemergence
Text: as §2, §3

[5] = Rate 62 g/ha, scale 0 to 100, 0 no effect, 100 complete control
[6] = Rate 125 g/ha, scale 0 to 100, 0 no effect, 100 complete control
[7] = Rate 250 g/ha, scale 0 to 100 (0 no effect, 100 complete control)
[8] = Rate 500 g/ha, scale 0 to 100 (0 no effect, 100 complete control)
[9] = Rate 16 g/ha, visually evaluated after 12 to 14 days, 0 = no effect, 100 = complete control
[10] = under head Rate 16 g/ha, (own rate not given), after 12 to 14 days
[11] = Rate 62 g/ha, visually evaluated after 12 to 14 days, 0 = no effect, 100 = complete control

Compound	Ducksalad plant response rating ([1]; Rate 250 g/ha)	Ducksalad plant response rating ([1]; Rate 500 g/ha)	Plant response rating, Ducksalad ([1]; Rate 62 g/ha)	Plant response rating, Ducksalad ([1]; Rate 125 g/ha)	Flatsedge plant response rating ([2]; Rate 250 g/ha)	Flatsedge plant response rating ([2]; Rate 500 g/ha)	Plant response rating, Flatsedge ([2]; Rate 62 g/ha)	Plant response rating, Flatsedge ([2]; Rate 125 g/ha)	Plant response rating, Sunflower (Sunflower; Rate 31 g/ha)	Plant response rating, Bermudagrass ([3]; Rate 31 g/ha, scale 0 to 100)	Plant response rating, Bermudagrass [3, 6]	Plant response rating, Bermudagrass [3, 7]	Plant response rating, Lambsquarters ([4]; Rate 31 g/ha, scale 0 to 100)	Plant response rating, Lambsquarters [4, 6]	Plant response rating, Lambsquarters [4, 7]	Plant response rating, Bermudagrass ([3]; Rate 62 g/ha, scale 0 to 100)	Plant response rating, Lambsquarters ([4]; Rate 62 g/ha, scale 0 to 100)	Plant response rating, Sunflower (Sunflower; Rate 62 g/ha)	other results
CC(C)(C)c1ccn(C2SCN(c3cccc(OC(F)F)c3)C2=O)n1 (stereo not drawn) [Compound 36]	100	100	80	90	100	100	100	100	0	0	0	70	50	70	70				Plant response rating, Bermudagrass [3, 5]: 0
O=C1C(n2ccc(C3CCC3)n2)SCN1c1cccc(C(F)(F)F)c1 (stereo not drawn) [Compound 37]	90	100	20	80	100	100	100	100	0	0	0	0	20	20	50				Plant response rating, Bermudagrass [3, 5]: 0
CCC(CC)c1ccn(C2CCN(c3ccc(C)c(OC)c3)C2=O)n1 (stereo not drawn) [Compound 81]	90	100	80	90	90	90	90	90	0	0	0	0	0		80	0	60		
COc1cc(N2CCC(n3ccc(C(C)C)n3)C2=O)ccc1C (stereo not drawn) [Compound 85]	100	100	90	100	100	100	90	100			0	80		90	100	0	70	40	Plant response rating, Bermudagrass [3, 8]: 90; Plant response rating, Lambsquarters [4, 8]: 100
CCCC(C)c1ccn(C2OCN(c3cccc(OC(F)(F)F)c3)C2=O)n1 (stereo not drawn) [Compound 91]	90	70	80	0	100	100	0	70			20	40		100	100	20	100	0	Plant response rating (scale 0 to 100), Ducksalad [1, 9]: 0; Plant response rating (scale 0 to 100), Ducksalad [1, 10]: 0; Plant response rating (scale 0 to 100), Flatsedge [2, 9]: 0; Plant response rating (scale 0 to 100), Flatsedge [2, 10]: 0; Plant response rating, Bermudagrass [3, 8]: 60; Plant response rating, Lambsquarters [4, 8]: 100
CCOc1cc(N2CCC(n3ccc(C(C)(C)C)n3)C2=O)ccc1C (stereo not drawn) [Compound 106]	100	100	0	0	100	100	80	90	70	0	0	20	80	80	100	0	80	70	
CCCOc1cc(N2CCC(n3ccc(C(C)(C)C)n3)C2=O)ccc1C (stereo not drawn) [Compound 107]	0	70	0	0	60	100	30	50			0	0			100	0	50	0	Plant response rating, Bermudagrass [3, 8]: 0; Plant response rating, Lambsquarters [4, 8]: 100
Cc1ccc(N2CCC(n3ccc(C(C)(C)C)n3)C2=O)cc1OCCCl (stereo not drawn) [Compound 109]	70	90	0	0	80	100	40	50	40	0	10	20	70		100	0	70	70	
CC(C)OC(=O)c1cccc(N2CCC(n3ccc(C(C)(C)C)n3)C2=O)c1 (stereo not drawn) [Compound 124]	40	80	0	20	30	90	0	20	0									0	
CCC(C)Oc1cccc(N2CCC(n3ccc(C(C)(C)C)n3)C2=O)c1 (stereo not drawn) [Compound 127]	50	80	0	0	80	90	0	0										0	
CCOc1cccc(N2CCC(n3ccc(C(C)C)n3)C2=O)c1 (stereo not drawn) [Compound 128]	100	100	60	70	100	100	90	90										20	
CCCC(C)c1ccn(C2CCN(c3cccc(OCC)c3)C2=O)n1 (stereo not drawn) [Compound 129]	90	90		30	90	90		80										0	Plant response rating (scale 0 to 100), Ducksalad [1, 11]: 20; Plant response rating (scale 0 to 100), Flatsedge [2, 11]: 70
